Test system: Wnt
Assay: Luciferase reporter assay, Wnt, T98G
Format: cell-based
Details: T98G cells, inducer m-wnt3a, dash: not inhibited by more than 40% at 50 µmol/L
Description: Hela cells (or T98G cells) from ATCC were plated in white opaque 384-well plates at a density of 4300 cells/well in 30 µL of growth medium (DMEM with 10% FBS and 1% Pen/Strep). The next day, the medium was aspirated and replaced with DMEM containing 1% FBS. The cells were transfected with respective plasmids using X-tremeGENE HP DNA transfection reagent (Roche). After 24 h of transfection, the test agents were added to the transfected cells, followed 30 min later by an inducing agent: interleukin 6 (IL-6) for Stat3, TGF-β for Smad, m-wnt3a for Wnt and PMA for AP-1, NF-κB, E2F, Myc, ETS, Notch and Hedgehog. No inducer was added for FoXO and pTK. After 4 h or 6 h of induction, the cells were lysed via the addition of the One-Glo luciferase assay system (Promega; Madison, WI). The light output was detected in a GloMax®-Multi+ Detection System with Instinct® Software (Promega E 8051). This luciferase assay determines if the test agent is able to inhibit the activation of cancer-related signaling pathways. In the case of FoxO, the enhanced luciferase activity via the test agent was assessed.

C=C(C)[C@H]1CC[C@H](C)C[C@@H]1c1c(O)cc(/C=C/c2ccccc2O)cc1O [compound 6, machaeridiol B]
IC50 (Homo sapiens): > 50 µM | IC50, Wnt (m-wnt3a): inactive

— PMC10361207, “Cannabinoid and Opioid Receptor Affinity and Modulation of Cancer-Related Signaling Pathways of Machaeriols and Machaeridiols from Machaerium Pers” (Molecules, 2023)
